Columns and labels:
Assay type in all cases: biochemical
[1] = molecular target: T1, S. cerevisiae poly(A) polymerase (Saccharomyces cerevisiae, UniProt P29468); assay: Modified nucleotide incorporation by S. cerevisiae poly(A) polymerase, denaturing gel electrophoresis; conditions: 37° C., 60 minutes; for incorporation by S. cerevisiae poly(A) polymerase: 2.5 mM modified nucleotide, 0.5 mM Mn^2+, 900 units enzyme
T1 construct: purchased Thermo 74225Z25KU
Method: FIGS. 4A and 4B. […] All 2′-modified ribonucleotides were at a final concentration of 2.5 mM and incubated at 37° C. for 60 minutes. The control reaction consisted of all reaction components except nucleotide. […] The negative reaction consisted of all reaction components except nucleotide.
The efficiency of S. cerevisiae poly(A) polymerase (Thermo 74225Z25KU) for incorporating of several 2′-modified was evaluated. The modified nucleotides evaluated included the following: 2′-F-rATP (Trilink N-1007), 2′-Azido-rATP (Trilink N-1045), 2′-Amino-rATP (Trilink N-1046), and 2′-O-Methyl rATP (Trilink N-1015). Extension reactions were supplemented with the appropriate buffers, which included 0.5 mM Mn^2+, 200 pmol of the initiator RNA oligonucleotide, 2.5 mM modified nucleotide, and 900 units of enzyme. Reactions were incubated at 37° C. for 60 minutes before being analyzed with denaturing gel electrophoresis. According to the gel (FIG. 4A), under these reactions conditions S. cerevisiae poly(A) polymerase incorporates all 2′-modified nucleotides (2′-Amino-, 2′-O-Methyl-, 2′-F-, and 2′-Azido-rATP). […] Under the same reaction conditions, the reversible terminator nucleoside triphosphate, 2′-O-allyl-rATP, was tested for controlled incorporation by S. cerevisiae poly(A) polymerase.

[2] = molecular target: T2, N-terminus His^6-tagged S. pombe poly(U) polymerase (Schizosaccharomyces pombe, UniProt O13833); assay: Activity of expressed N-terminus His6-tagged S. pombe poly(U) polymerase with 2′-O-allyl-ATP; conditions: 1 mM nucleotide, approximately 100 pmol of initiator oligonucleotide, 10 μL, 30 seconds at 37° C.
T2 construct: made in house; host or cells: E. coli (T7 Express)
T2 sequence (O13833 1-405): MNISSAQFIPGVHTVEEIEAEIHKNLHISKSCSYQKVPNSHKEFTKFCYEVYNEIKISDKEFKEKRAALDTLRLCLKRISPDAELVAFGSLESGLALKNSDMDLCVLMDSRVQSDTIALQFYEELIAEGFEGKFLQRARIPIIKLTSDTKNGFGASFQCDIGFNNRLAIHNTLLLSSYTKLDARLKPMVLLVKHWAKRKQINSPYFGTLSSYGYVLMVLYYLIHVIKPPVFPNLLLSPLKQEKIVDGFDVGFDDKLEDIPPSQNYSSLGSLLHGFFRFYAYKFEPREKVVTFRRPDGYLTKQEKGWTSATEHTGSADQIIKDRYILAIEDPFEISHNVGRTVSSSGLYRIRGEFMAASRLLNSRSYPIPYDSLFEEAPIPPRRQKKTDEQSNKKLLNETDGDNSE
Method: FIGS. 13A and 13B. […] The expected molecular weight of the expressed N-terminus His^6-tagged S. pombe poly(U) polymerase is approximately 45 kDa. […] Reactions were supplemented with increasing amounts of initiator oligonucleotide (from 20 pmol to 1000 pmol) to determine the relative conversion rates as a function of initiator oligonucleotide material as performed by concentrated N-terminus His^6-tagged S. pombe poly(U) polymerase. All reaction volumes were 10 μL, the initiator oligonucleotide was a poly-rU-15-mer labeled with a 5′-Cy5 fluorophore. Reactions were incubated at 37° C. for 30 seconds. The control reaction contained all reaction components (initiator oligonucleotide was 20 pmol) with the exception of reversible terminator nucleotide.
The primary sequence for S. pombe poly(U) polymerase (UniProtKB—O13833) was modified by adding the amino acids “[…]” to the N-terminus of the enzyme. These amino acids encode for an N-terminus His^6-tag with the appropriate linkers. Using the protocol outlined in the material and methods section, N-terminus His^6-tagged S. pombe poly(U) polymerase was expressed, purified, and concentrated to a small volume. […] Using the N-terminus His^6-tagged S. pombe poly(U) polymerase, it was determined that approximately 100 pmol of initiator oligonucleotide can be converted to the (+1) product with a conversion rate of >99% (FIG. 13B). […]

[3] = molecular target: T3, S. pombe poly(U) polymerase (Schizosaccharomyces pombe, UniProt O13833); assay: Controlled (n+1) extension with reversible terminator nucleotides by S. pombe poly(U) polymerase; conditions: 37° C.
T3 sequence (O13833 1-405): T2 sequence (O13833 1-405)

[4] = molecular target: T4, S. pombe Cid1 poly(U) polymerase (Schizosaccharomyces pombe, UniProt O13833); assay: Uncontrolled extension with natural and modified nucleotides by S. pombe Cid1 poly(U) polymerase (gel, RNA kinetic assay); conditions: for effect of inorganic pyrophosphatase supplementation on RNA synthesis by poly(U) polymerase: 1 mM ribonucleotide, 0.1 units Yeast Inorganic Pyrophosphatase; for incorporation of natural ribonucleotides by poly(U) polymerase: 1.0 mM nucleotide, 5′-Cy5-poly rU-15-mer, 37° C., 30 minutes, gel and RNA kinetic assay
T4 construct: purchased NEB M0337
T4 sequence (O13833 1-405): T2 sequence (O13833 1-405)

[5] = molecular target: T3, S. pombe poly(U) polymerase; assay: RNA synthesis by S. pombe poly(U) polymerase with competitive inhibitor (non-hydrolyzable) nucleotide; conditions: with UTP, 30 minutes at 37° C.
[6] = molecular target: T5, Human polymerase μ R387K (Homo sapiens, UniProt Q9NP87, R387K); assay: dATP / rATP incorporation by polymerase μ R387K, denaturing gel electrophoresis; conditions: 0.25 mM Mn^2+ and Mg^2+; for incorporation by polymerase μ R387K: poly dT-15-mer initiator
T5 construct: His-tag (pET-28c vector); made in house; host or cells: E. coli (T7 Express)
Method: FIGS. 3A to 3C. […] Denaturing gel electrophoresis analysis of dATP incorporation (FIG. 3B) and rATP incorporation (FIG. 3C) at nucleotide concentrations of 200-50 μM and 5.0-0.62 mM for dATP and rATP, respectively. These reactions were supplemented with 0.25 mM Mn^2+ and Mg^2+. The control reaction consisted of all reaction components except nucleotide. For all reactions, the initiator oligonucleotide was a HPLC-purified poly dT-15-mer.
Human polymerase μ R387K was expressed and purified as described in the materials and methods. Because it was unknown under which reaction conditions polymerase μ R387K functioned optimally, several reaction parameters were initially evaluated. […] Thus, polymerase p R387K, a confirmed DNA/RNA-directed polymerase, is useful for controlled enzymatic RNA synthesis.

T1 sequence (P29468 whole entry): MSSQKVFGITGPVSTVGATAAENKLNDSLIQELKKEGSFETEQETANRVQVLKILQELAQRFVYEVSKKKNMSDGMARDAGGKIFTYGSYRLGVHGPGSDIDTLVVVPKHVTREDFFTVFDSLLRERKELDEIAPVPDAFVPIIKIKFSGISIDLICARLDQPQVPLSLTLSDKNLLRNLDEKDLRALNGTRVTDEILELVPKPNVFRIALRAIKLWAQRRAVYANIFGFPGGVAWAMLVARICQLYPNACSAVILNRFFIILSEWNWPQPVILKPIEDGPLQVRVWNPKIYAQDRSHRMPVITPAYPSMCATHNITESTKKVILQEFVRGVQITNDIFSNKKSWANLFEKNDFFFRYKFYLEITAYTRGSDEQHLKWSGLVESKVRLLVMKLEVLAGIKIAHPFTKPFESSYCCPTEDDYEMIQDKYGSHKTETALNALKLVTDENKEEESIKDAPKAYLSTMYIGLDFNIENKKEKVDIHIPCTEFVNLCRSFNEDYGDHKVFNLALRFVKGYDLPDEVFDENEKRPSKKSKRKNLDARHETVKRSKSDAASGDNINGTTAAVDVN
T5 sequence (Q9NP87 whole entry R387K): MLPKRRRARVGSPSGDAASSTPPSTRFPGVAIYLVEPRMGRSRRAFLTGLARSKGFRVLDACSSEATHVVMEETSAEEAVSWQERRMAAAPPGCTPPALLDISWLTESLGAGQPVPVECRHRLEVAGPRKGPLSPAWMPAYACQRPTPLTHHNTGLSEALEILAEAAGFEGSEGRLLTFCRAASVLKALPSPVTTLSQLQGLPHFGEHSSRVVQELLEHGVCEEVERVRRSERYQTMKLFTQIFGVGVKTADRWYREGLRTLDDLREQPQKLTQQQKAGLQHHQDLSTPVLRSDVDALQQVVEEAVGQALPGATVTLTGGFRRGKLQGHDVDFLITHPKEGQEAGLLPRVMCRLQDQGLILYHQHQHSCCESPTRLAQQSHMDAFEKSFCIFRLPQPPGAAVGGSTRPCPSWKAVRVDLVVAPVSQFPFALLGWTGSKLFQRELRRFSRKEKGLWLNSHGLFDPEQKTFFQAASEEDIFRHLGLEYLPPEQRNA

SMILES: Nc1ncnc2c1ncn2[C@@H]1O[C@H](COP(=O)(O)OP(=O)(O)OP(=O)(O)O)[C@@H](O)[C@H]1N [2′-Amino-rATP, 2′-amino-2′-deoxyadenosine-5′-triphosphate]
- incorporation by S. cerevisiae poly(A) polymerase [1]: incorporates

SMILES: [N-]=[N+]=N[C@@H]1[C@H](O)[C@@H](COP(=O)(O)OP(=O)(O)OP(=O)(O)O)O[C@H]1n1cnc2c(N)ncnc21 [2′-Azido-rATP, 2′-azido-2′-deoxyadenosine-5′-triphosphate]
- incorporation by S. cerevisiae poly(A) polymerase [1]: incorporates

SMILES: Nc1ncnc2c1ncn2[C@@H]1O[C@H](COP(=O)(O)OP(=O)(O)OP(=O)(O)O)[C@@H](O)[C@H]1F [2′-F-rATP, 2′-fluoro-2′-deoxyadenosine-5′-triphosphate]
- incorporation by S. cerevisiae poly(A) polymerase [1]: incorporates

SMILES: CO[C@@H]1[C@H](O)[C@@H](COP(=O)(O)OP(=O)(O)OP(=O)(O)O)O[C@H]1n1cnc2c(N)ncnc21 [2′-O-Methyl rATP, 2′-O-methyladenosine-5′-triphosphate]
- incorporation by S. cerevisiae poly(A) polymerase [1]: incorporates

SMILES: C=CCO[C@@H]1[C@H](O)[C@@H](COP(=O)(O)OP(=O)(O)OP(=O)(O)O)O[C@H]1n1cnc2c(N)ncnc21 [2′-O-allyl-ATP]
- conversion rate to the (+1) product [2]: > 99%
- controlled incorporation by S. cerevisiae poly(A) polymerase ([1]; nucleoside triphosphate 250 μM to 4000 μM): positive (n+1) incorporation
- incorporation of reversible terminator by poly(U) polymerase ([3]; 1 mM, 30 minutes, initiator extended by one base): incorporated only a single
- conversion rate of initiator (+0) to extension product (+1) ([3]; optimized conditions, 0.5 minutes): > 99%
- time required to fully convert the initiator oligonucleotide (+0) to extension product (+1) ([3]; optimized conditions, poly-rU-15-mer 5′-Cy5): less than or equal to 0.5 minutes

SMILES: O=c1[nH]cc([C@@H]2O[C@H](COP(=O)(O)OP(=O)(O)OP(=O)(O)O)[C@@H](O)[C@H]2O)c(=O)[nH]1 [Pseudouridine, pseudouridine-5′-triphosphate]
- length of RNA oligonucleotides produced ([4]; 2 mM, 1 mM, or 0.5 mM nucleotide, 0.1 units PPi-ase, 30 minutes at 37° C.): 30-45 nt

SMILES: O=c1ccn([C@@H]2O[C@H](COP(=O)(O)NP(=O)(O)OP(=O)(O)O)[C@@H](O)[C@H]2O)c(=O)[nH]1 [Uridine-5′-[(α,β)-imido]triphosphate]
- concentrations having little effect on controlling the RNA synthesis reaction [5]: below 0.8 mM
- effect of higher concentrations of non-hydrolyzable ribonucleotide on rUTP incorporation [5]: significantly limited the total number of hydrolyzable rUTP incorporations

SMILES: Nc1ncnc2c1ncn2[C@H]1C[C@H](O)[C@@H](COP(=O)(O)OP(=O)(O)OP(=O)(O)O)O1 [dATP]
- incorporation by polymerase μ R387K [6]: can incorporate

SMILES: Nc1ncnc2c1ncn2[C@@H]1O[C@H](COP(=O)(O)OP(=O)(O)OP(=O)(O)O)[C@@H](O)[C@H]1O [rATP]
- effect of inorganic pyrophosphatase supplementation on RNA synthesis by poly(U) polymerase ([4]; 30 minutes at 37° C.): greatest enhancement
- nucleotide concentration needed to produce a response similar to 200 μM of dATP [6]: 5 mM
- incorporation by polymerase μ R387K [6]: can incorporate

SMILES: Nc1ccn([C@@H]2O[C@H](COP(=O)(O)OP(=O)(O)OP(=O)(O)O)[C@@H](O)[C@H]2O)c(=O)n1 [rCTP]
- incorporation of natural ribonucleotides by poly(U) polymerase [4]: has activity
- effect of inorganic pyrophosphatase supplementation on RNA synthesis by poly(U) polymerase ([4]; 30 minutes at 37° C.): minimally affected

SMILES: Nc1nc2c(ncn2[C@@H]2O[C@H](COP(=O)(O)OP(=O)(O)OP(=O)(O)O)[C@@H](O)[C@H]2O)c(=O)[nH]1 [rGTP]
- incorporation of natural ribonucleotides by poly(U) polymerase [4]: has activity
- effect of inorganic pyrophosphatase supplementation on RNA synthesis by poly(U) polymerase ([4]; 30 minutes at 37° C.): minimally affected

SMILES: O=c1ccn([C@@H]2O[C@H](COP(=O)(O)OP(=O)(O)OP(=O)(O)O)[C@@H](O)[C@H]2O)c(=O)[nH]1 [rUTP]
- effect of inorganic pyrophosphatase supplementation on RNA synthesis by poly(U) polymerase ([4]; 30 minutes at 37° C.): greatest enhancement

— patent US20220145295A1, “ENZYMATIC RNA SYNTHESIS” (President and Fellows of Harvard College, priority 2018, published 2022)
